Where no end group is shown, it is not given here.
Molecular target: C10-11 mAb
Assay: Competitive ELISA with AChE-labeled C10 peptide on C10-11 mAb
Parameters: species or system mouse
Details: read-out: Apparent dissociation constant (Kapp) of C10-11 mAb; concentration of competitor inducing 50% inhibition of binding of AChE-labeled C10 peptide (0.5 EU/mL); mAb 1 ng/mL, overnight at 4 °C; NB means no binding
Method: The apparent affinity of anti-C10 peptide mAbs for different variants of C10 peptides and recombinant OspC was measured by competitive ELISA, using goat anti-mouse antibodies (Jackson ImmunoResearch, Cambridgeshire, United Kingdom) coated on the wells of a microtiter plate. A mix of anti-C10 peptide mAb (1 ng/mL), AChE-labeled C10 peptide (0.5 EU/mL) and different concentrations of competitor peptide or recombinant OspC were reacted overnight in the wells at 4 °C.

Row | Sequence | Kd [nM]
1 | PIVAESPKKP [compound 10] | 100
2 | PVMAESPKKP [compound 9] | 125
3 | PVVAEAPKKP [compound 2] | 146
4 | PVVAESPKKP [compound 1, reference compound] | 33
5 | PVVAESPKKT [compound 3] | 60
6 | PVVAESQKKP [compound 7] | 170
7 | PVVAETPKKP [compound 5] | 179

Reference: paper PMC8405660, “Detection of Borrelia burgdorferi antigens in tissues and plasma during early infection in a mouse model” (Scientific Reports, 2021)
